Tests used:
[1] = tested on: phosphorylated (Ser27) ANX A1 in U937 cells; assay: ANX A1 Ser27 phosphorylation in U937 cells (western blotting); format: cell-based, human
Method: For analyses of ANX A1 phosphorylation, the U937 cells treated as above were lysed with NP40 lysis buffer (20 mmol L^−1 Tris-HCl (pH 7.5), 150 mmol L^−1 NaCl, 1% NP40), and the lysates (10 μg) were subjected to SDS-PAGE, followed by western blotting using antibodies against ANX A1 or phosphorylated (Ser27) ANX A1 (dilution: 1:1000).

[2] = tested on: ANX A1 mutants (G210W, F221S, and V251W); assay: ITC binding analysis using recombinant ANX A1 point mutants; design: species or system human; settings: V251W in contrast with ANX A1 WT
Method: ITC experiments were performed at 298 K with ITC buffer (20 mmol L^−1 Tris-HCl (pH 7.5), 100 mmol L^−1 NaCl, 2% dimethyl sulfoxide) using a MicroCal iTC200 (Malvern). SC1 or SC2 were dissolved at 2 mmol L^−1 with ITC buffer and titrated into 1 μmol L^−1 of ANX A1 protein with or without 2 mmol L^−1 EDTA (for apo-ANX A1) or 3 mmol L^−1 CaCl2 (for Ca^2+-bound ANX A1). The titration was performed by injecting 2 µL of the syringe solution at intervals of 120 s. The binding isotherms were analysed using SEDPHAT.[54]
Supplementary Fi g u re 3. Isothermal titra tion calori met ry analyses using ANX A1 […]
Analyses of binding affinity between SC1 and ANX A1 (wild type (WT) or point mutants (G210W, F221S, or V251W)) using isothermal titration calorimetry ( ITC). […]
(1 picture or pasted object on this page, not shown here)

recombinant ANX V = tested on: T1, recombinant ANX V; assay: Affinity nanobeads binding assay with recombinant annexin V
T1 construct: purchased Abcam

CCl4-treated WT mice = assay: CCl4-induced liver damage and inflammation in WT mice; format: in vivo, mouse (C57BL/6J); settings: SC1 50 mg kg^−1 intraperitoneally twice
Text: (§1) All protocols for animal procedures were approved by the Ethics Committee of Animal Experiments in accordance with the Internal Regulations on Animal Experiments at Keio University and Suntory Holdings Ltd, which are based on the Law for the Humane Treatment and Management of Animals (Law No. 105, 1 October 1973, as amended on 30 May 2014). Male C57BL/6J wild-type (WT) mice were purchased from CLEA Japan Inc. (Tokyo, Japan). WT and ANX A1-KO mice at 7 to 9 weeks of age received an intraperitoneal injection of vehicle (corn oil, 16.7 mL kg^−1) or CCl4 (50 μL kg^−1). To evaluate the effect of sesamin, vehicle (olive oil, 5 mL kg^−1) or sesamin (25 mg kg^−1) was orally administered twice at 1 h before and 7 h after CCl4 injection. To evaluate the effect of SC1, vehicle (ethanol dissolved in corn oil at a ratio of 1:19, 5 mL kg^−1) or SC1 (50 mg kg^−1) was intraperitoneally administered twice as mentioned above. Mice were euthanized after 12 or 24 h […] CCl4 injection before collecting blood and liver samples. Plasma AST, ALT, or LDH were measured using L-type AST J2, L-type ALT J2 or L-type LD J (Wako, Osaka, Japan), respectively. The liver tissues were fixed with 10% formalin, embedded in paraffin sectioned to 3–4 μm thickness and mounted on slides. Liver sections were de-paraffinized with xylene and re-hydrated with alcohols. The staining was performed with eosin solution for the cytoplasm and Mayer’s haematoxylin solution or monoclonal galectin-3 antibody (1:100, BioLegend, CA, USA). Slides were observed under a light microscope (BX52, Olympus, Japan), and images were analysed using LUMINA VISION (Mitani Corporation, Japan).
(§2) Production of TNFα or MCP-1 in the plasma or liver was measured using a V-PLEX Proinflammatory Panel 1 Mouse Kit or U-PLEX Mouse MCP-1 assay Kit (Meso Scale Diagnostics, USA), respectively. Plasma or liver tissues homogenised in phosphate-buffered saline (Nacalai Tesque) were applied into the pre-coated plate with antibodies against target proteins before labelling with secondary antibodies conjugated to chemiluminescence. The signal intensity was measured using an analyser (SECTOR Imager 6000, Meso Scale Diagnostics, USA).
(§3) Total RNA of the liver was extracted using an RNeasy Mini Kit (Qiagen, USA), and the cDNAs were prepared using High-Capacity cDNA Reverse Transcription Kits (Thermo Fisher Scientific, USA). Quantitative reverse transcription-PCR was performed according to the manufacturer’s instructions using the TaqMan® Gene Expression Assay System (Applied Biosystems, USA) with a 7900HT Fast Real Time PCR System (Applied Biosystems, USA). The levels of target mRNAs were normalised using the expression of the 18S ribosomal RNA. The primer IDs are listed in Supplementary Table 1.

[3] = tested on: CCl4-treated ANX A1-KO mice; assay: CCl4-induced liver damage and inflammation in ANX A1-KO mice; format: in vivo, mouse (C57BL/6J); settings: SC1 50 mg kg^−1 intraperitoneally twice
Text: ANX A1-deficient mice (C57BL/6J) were generated by homologous recombination at Trans Genic Inc. (Fukuoka, Japan), as shown in Fig. S4. The vector targeting ANX A1 for deleting the coding region (exons 3–6) containing selectable neomycin-resistance (Neo) and PGK promoter genes was used. The targeting vector contained the 3.0 kbp of the 5′ arm flanking sequence and 4.5 kbp of the 3′ arm flanking sequence. The PGK-Neor gene was deleted by crossing with the CAG-flp mouse.[58]
as §1, §2, §3

[4] = tested on: extracellular ANX A1 release from U937 cells; assay: Extracellular release of ANX A1 from U937 cells (ELISA); format: cell-based, human; settings: PMA/LPS-treated U937 cells
Method: For enzyme-linked immunosorbent assay (ELISA) assays, U937 cells (control or ANX A1 KD) were seeded on 96-well plates and stimulated by adding 100 nmol L^−1 phorbol myristate acetate (Sigma-Aldrich, MO, USA) for 24 h. The cells were treated for 12 h with LPS (100 ng mL^−1) with or without adding the indicated sesamin, SC1, or SC2 and/or PD98059 concentrations. The cell culture supernatants were collected, and TNFα or ANX A1 production was measured using ELISA (TNFα: R&D Systems; ANX A1: USCN, Wuhan, China) according to the manufacturer’s instructions.

Oc1ccc(C2OCC3C(c4ccc5c(c4)OCO5)OCC23)cc1O (stereo not drawn) [SC1, (7α,7′α,8α,8′α)-3′,4′-methylenedioxy-7,9′:7′,9-diepoxylignane-3,4-diol]
ANX A1 phosphorylation at Ser27 ([1]; after PMA and LPS treatment, dose-dependent, 12 h): significantly induced phosphorylation | ANX A1 phosphorylation at Ser27 ([1]; without PMA and LPS stimulation): not observed | binding activity to SC1 of ANX A1 mutants [2]: disrupted the binding activity | binding of recombinant ANX V to beads (recombinant ANX V): no binding | MCP-1 expression in the liver (CCl4-treated WT mice; 12 h after CCl4, WT): suppressed | TNFα expression in the liver (CCl4-treated WT mice; 12 h after CCl4, WT): suppressed | plasma ALT (CCl4-treated WT mice; 24 h, WT): suppressed | plasma AST (CCl4-treated WT mice; 24 h, WT): suppressed | plasma LDH (CCl4-treated WT mice; 24 h, WT): suppressed | MCP-1 expression in the liver ([3]; 12 h after CCl4, ANX A1-null): no effect was observed | TNFα expression in the liver ([3]; 12 h after CCl4, ANX A1-null): no effect was observed | plasma AST ([3]; 24 h, ANX A1-null): not | cellular release of ANX A1 [4]: significantly enhanced

— publication PMC7033200, “Annexin A1 accounts for an anti-inflammatory binding target of sesamin metabolites” (NPJ Science of Food, 2020)
